How the values were obtained:
Assay type in all cases: cell-based, mouse
[1] = tested on: primary hippocampal and cortical neurons; assay: SARE-ArcMin-luciferase-PSD95-mVenus luciferase assay in primary neuronal cultures, 96-well; settings: hippocampal vs cortical primary cultures, 96-well plate
Protocol: (§1) Animals were handled according to protocols approved by the Northwestern University Animal Care and Use Committee. Cortical neurons were harvested from mouse embryos euthanized at embryonic day 18 and plated in poly-D-lysine coated plates. Embryonic brains were dissected in ice-cold dissection media (Hank's balance salt solution HBSS, 2% penicillin-streptomycin, 20 mM HEPES). Meninges were removed from each brain and cortices were dissected out. The cortices were chopped into small pieces using a microscissors and pooled in 5 mL dissection media containing 0.25% trypsin and 0.1% DNasel and trypsinised at 37° ° C. for 20-25 min. Cortices were washed twice with warm dissection media, and once with warm plating medium (MEM, supplemented with 10% heat-inactivated horse serum, 0.6% glucose, 1 mM Na pyruvate, 1% Glutamax, 1% penicillin-streptomycin) for 5 min each. Tissues were titurated in 3 mL fresh plating medium with unpolished and, subsequently, polished glass Pasteur pipettes. 1 k, 80 k, 150 k, 2500 k cells were seeded in 384-well, 12-well, 6-well plates, 10-cm dishes, respectively. […]
Luciferase substrate systems were prepared according to the Manufacturer's instructions. […] Plates were read by Biotek Syngery Neo2 plate reader. […]

[2] = tested on: primary cortical neurons; assay: Western blot of biotinylation by TurboID constructs in cortical neurons; settings: 55 mM KCl
Protocol: as §1, with “pipettes.” for “pipettes. 1 k, 80 k, 150 k, 2500 k cells were seeded in 384-well, 12-well, 6-well plates, 10-cm dishes, respectively.”
Cell pellets were sonicated in NP40 lysis buffer (1% NP40, 150 mM NaCl, 50 mM Tris, pH 8, 1× Halt). […] Total protein was detected using REVERT 700 according to the manufacturer instructions. […] All quantification was performed using LI-COR Image Studio version 5.2. For densitometry quantification, band signals were normalized to total protein stain in each blot using the equation below.

[3] = tested on: Psd95; assay: Western blot analysis of forskolin stimulation in cell culture: Psd95; settings: 1 μM forskolin vs 0.1% DMSO, normalized band signal, n=3, adj. p=1
Protocol: (§2) For initial 384-well plate set up and western blot validation, forskolin (from 25 mM DMSO stock) was used as a positive control and DMSO was used as a vehicle control. For example, at 25 and 2.5 μM forskolin (0.1%, 0.01% DMSO), the corresponding vehicle control was 0.1% and 0.01% DMSO, respectively. Media was changed to NB-27 containing pharmacological agents (concentration specified in figure legends) and processed as described in each section 16 hrs after treatment.
(§3) Cell pellets were sonicated in NP40 lysis buffer (1% NP40, 150 mM NaCl, 50 mM Tris, pH 8, 1× Halt). Proteins were separated in 12% Tris-glycine gels and transferred to nitrocellulose membrane (Cat. No. 926-31090, LI-COR, NE, USA). Blots were briefly rinsed with TBS. Total protein was detected using REVERT 700 according to the manufacturer instructions. For detecting individual proteins, unless specified, blots were blocked with 5% milk-containing TBST (0.1% Tween20) for 1 hr at RT. Primary antibodies were added in the same blocking buffer for overnight incubation (1:1,000 rabbit RFP, Rockland, Cat. No., 600-401-379-RTU, and 1:1,000 mouse Psd95 Biolegend Cat. Nol, 810401)). […] All quantification was performed using LI-COR Image Studio version 5.2. For densitometry quantification, band signals were normalized to total protein stain in each blot using the equation below. […]

[4] = tested on: cFos; assay: Western blot analysis of forskolin stimulation in cell culture: cFos; settings: 1 μM forskolin vs 0.1% DMSO, normalized band signal, n=3, adj. p=0.0462
Protocol: as §2, §3

[5] = tested on: NanoLuc; assay: Western blot analysis of forskolin stimulation in cell culture: NanoLuc (RFP); settings: 1 μM forskolin vs 0.1% DMSO, normalized band signal, n=3, adj. p=0.324
Protocol: as §2, §3

Structure (SMILES): COc1ccc(-c2ccc(=N)n(CCCC(=O)O)n2)cc1 [Gabazine]
- dose-response of luciferase activity, construct (1) [1]: dose-response is cell-type specific

Structure (SMILES): [Cl-].[K+] [KCl]
- biotin-labelling after induction of neuronal activity [2]: enhanced biotin-labelling

Structure (SMILES): CNC1(c2ccccc2Cl)CCCCC1=O (stereo not drawn) [Ketamine]
- dose-response of luciferase activity, construct (1) [1]: dose-response is cell-type specific

Structure (SMILES): C=C[C@@]1(C)CC(=O)[C@]2(O)[C@@]3(C)[C@@H](O)CCC(C)(C)[C@@H]3[C@H](O)[C@H](OC(C)=O)[C@@]2(C)O1 [forskolin]
- Psd95 expression, FSK−DMSO [3]: −0.048±0.1131
- cFos expression, FSK−DMSO [4]: 3.232±0.769
- NanoLuc expression, FSK−DMSO [5]: 0.583±0.267
